Laboratory results published in EP0085866A1, “Derivatives of benzo-1,2-thiazine-1,1-dioxide, a process for their preparation and pharmaceutical compositions containing the same” (priority 1982, dated 1983).
Where two headings read alike, the source gives them in different places.

Columns and labels:
[1] = system: male mice IVA:NMRI (SPF); assay: Acute toxicity by single oral administration; assay type: in vivo; settings: versus piroxicam
Description: (§1) The toxicity by single administration has been determined by oral route in male mice IVA:NMRI (SPF), fasting, with water ad libitum 18 hours before the experiment. The substances under exam were suspended in 1% carboxymethylcellulose.

[2] = Acute toxicity by single oral administration; assay type: in vivo; settings: mouse, in vivo
Description: as §1

[3] = system: gastric mucosa; assay: Gastrolesive activity (macroscopic control of the gastric mucosa); assay type: in vivo, Crl: CD(SD) male rats; settings: for Therapeutic index UD3/ED30 / Gastrolesive activity UD3: oral route, exp. session I and II (r4-r7); for Therapeutic index UD3/ED30: rat; for Gastrolesive activity UD3: dose expected to give gastric lesion of total extension of 3 mm, 7 hours after administration; for improvement of tolerability (in words): versus parent compound piroxicam
Text: On the ground of such lines the calculation of UD3 values, that is a dose whereby a gastric lesion of the total extension of 3 mm is expected, has been performed.

[4] = system: fever by beer's yeast; assay: Fever by beer's yeast; assay type: in vivo, reat; settings: on molar basis, times as active as piroxicam
Text: (§2) In other tests of direct comparison between piro xicam and CHF 1021, the latter confirmed its anti inflammatory activity, along with a good analgesic and antipiretic activity.

[5] = system: arthritis by adjuvant in the rat; assay: Arthritis by adjuvant; assay type: in vivo; settings: direct comparison with piroxicam
Text: as §2

[6] = Preliminary clinical data; assay type: in vivo
[7] = system: oedema induced in the rat's paw by carrageenin; assay: Antiinflammatory activity in the test of plantar edema by carrageenin; assay type: in vivo, Crl: CD(SD) male rats; settings: for ED30: Rattus norvegicus, po; for antiinflammatory activity (in words): comparison with piroxicam, rat
Description: Crl: CD(SD) male rats, weighing 170-205 g, previously subjected to an acclimation period of at least one week through housing in environment with co.stant thermohygrometric conditions and fa sting with water ad libitum 18 hours before the start of the test, have been distributed "at ran dom" in groups of 5-6 animals each (4 groups cor responding to 4 different dose levels for each compound). A group of control animals has been treated only with the vehicle. […] Soc. Exp. Biol. Med. 111, 544, 1962). The volume of the treated paw has been measured by means of a water-mercury pletismometer according to Leuce P., Arch. Int. Pharmacodyn. 136, 237, 1962) immediately before and at different […] injection of the phlogogenic agent. The results have been expressed as ED30 values calculated on the logarithmic regression straight lines of the percent dose/inhibition of the oedema development, in turn determined from the ratio between the mean AUC value (area under the curve representing the development of the paw volume in the time) in the different treated animals groups and the respective control groups.

[8] = system: plantar oedema by nystatin in the rat; assay: Plantar oedema by nystatin; assay type: in vivo; settings: on molar basis, times as active as piroxicam
Text: as §2

[9] = system: erythema by U.V. in the guinea pig; assay: Erythema by U.V.; assay type: in vivo; settings: on molar basis, times as active as piroxicam
Text: as §2

[10] = system: writhing test by phenylquinone in the mouse; assay: Writhing test by phenylquinone; assay type: in vivo; settings: on molar basis, times as active as piroxicam
Text: as §2

[11] = single administration, oral route, fasting male mice, suspended in 1% carboxymethylcellulose, interpolation on Probit paper, read-out: Approx. LD50
[12] = 1 hour before carrageenin, from inhibition of oedema AUC, exp. session I and II (r4-r7)

SMILES | acute toxicity, lower in comparison to the reference compound [1] | LD50 [2, 11] [mg/kg] | Therapeutic index UD3/ED30 [3] | Gastrolesive activity UD3 [3] [µmol/kg] | ulcerogenic activity, times lower in comparison to the reference compound ([3]; versus piroxicam) | potency ratio (ratio between ED50 values) [4] | activity on the arthritis by adjuvant (in words) [5] | antiinflammatory activity in comparison with piroxicam (in words) [6] | incidence of side effects relative to the reference drug ([6]; fraction of that of piroxicam) | ED30 [7, 12] [µmol/kg] | antiinflammatory activity (in words) ([7]; oral route) | potency ratio (ratio between ED50 values) [8] | potency ratio (ratio between ED50 values) [9] | potency ratio (ratio between ED50 values) [10] | LD50 ([2]; po) [mg/kg] | improvement of tolerability (in words) [3] | Antiinflammatory activity ED30 ([7]; oral route, 1 hour before carrageenin, from inhibition of oedema AUC, exp. session I and II (r4-r7)) [µmol/kg] | ulcerogenic potency ratio ([3]; ratio to piroxicam taken as 1)
CN1C(C(=O)Nc2ccccn2)=C(OC(=O)C(C)(C)C)c2ccccc2S1(=O)=O [CHF 1021, 4-Pivaloyloxy-2-methyl-2H-1,2-benzothiazine-3-[N-(2-pyridyl)-carboxamide]-1,1-dioxide] | about 35% | 1800 | 12.3 | 97.2 | at least 10 times | 0.71 | almost equally active | practically equally active | about 1/3 | 7.9 | comparable to the one of the reference compound | 1.52 | 0.49 | 0.72 |  |  |  | 
CCCCC(=O)OC1=C(C(=O)Nc2ccccn2)N(C)S(=O)(=O)c2ccccc21 [CHF 1109] |  |  | 4.0 | 28.2 |  |  |  |  |  | 7 | analogous or also slightly higher than the one of the parent compound |  |  |  | 1100 | do not show an improvement |  | 
CN1C(C(=O)Nc2ccccn2)=C(O)c2ccccc2S1(=O)=O [piroxicam, reference compound] |  | 345 |  |  |  |  |  |  |  | 7.8 |  |  |  |  |  |  | 9.7 | 
CCCC(=O)OC1=C(C(=O)Nc2ccccn2)N(C)S(=O)(=O)c2ccccc21 [CHF 1115] |  |  | 4.2 | 23.9 |  |  |  |  |  | 5.7 | analogous or also slightly higher than the one of the parent compound |  |  |  | 880 | do not show an improvement |  | 0.88
CN1C(C(=O)Nc2nccs2)=C(OC(=O)C(C)(C)C)c2ccccc2S1(=O)=O [CHF 1047, 4-pivaloyloxy-2-methyl-2H-1,2-benzothiazine-3-[N-(2-thiazolyl)-carboxamide]-1,1-dioxide] |  | > 3000 | 0.2 | 121.2 |  |  |  |  |  | ~762 | very low |  |  |  |  |  |  | 
